{"source": "patent US20110184024A1", "about": "“Pharmaceutical Composition Containing Esomeprazole” (CTC BIO, INC., priority 2007, published 2011)", "origin": "cited, not measured here", "conditions": "stored for two months at 25° C./60% RH"}
{"smiles": "COc1ccc2nc([S@@+]([O-])Cc3ncc(C)c(OC)c3C)[nH]c2c1", "note": "[esomeprazole free base, (S)-5-methoxy-2-[(4-methoxy-3,5-dimethylpyridin-2-yl)methylsulfinyl]-3H-benzoimidazole]", "values": [{"measurement": "total impurities after storage", "result": "about 1%"}]}
